Read-outs that look alike come from different tables or passages of the source.
What was measured:
[1] = Pharmacokinetics in rats by intravenous route; assay type: in vivo; conditions: rat, in vivo, 80 μg/mL at 1 mL/kg
Procedure: (§1) Each sample was adjusted to 80 μg/mL by dilution with 25 mmol/L citrate-phosphate buffer (pH 5.0) containing 100 mmol/L NaCl and 0.05 vol % Tween 20 to give a solution for administration. Male SD rats at 6 weeks of age (CLEA Japan, Inc.) were provided for this experiment. Intravenous injection was performed on rats having polyethylene tubes (SP-31, Natsume Seisakusho Co., Ltd.) inserted into the femoral artery and vein. The solutions thus prepared were each administered at a dose of 1 mL/kg through a polyethylene tube inserted into the femoral vein, and blood was collected through a polyethylene tube inserted into the femoral artery before administration and at 5, 15, 30 and 45 minutes as well as 1, 2, 4, 6, 8 and 24 hours after administration. Subcutaneous administration was performed on rats having polyethylene tubes inserted into the femoral artery. The solutions prepared above were each subcutaneously administered at a dose of 1 mL/kg to the dorsal neck region of the rats, and blood was collected in the same manner as used for intravenous injection. These blood samples were centrifuged to collect plasma and stored at −40° C. until assayed for PTH(1-34) or PEG-PTH(1-34) levels.
(§2) The level of PTH(1-34) or PEG-PTH(1-34) was determined by RIA analysis using a Rat PTH IRMA Kit (Immutopics). A Cobra Quantum Model 5005 gamma counter (Packard) was used to measure radioactivity for each sample. The plasma level of PTH(1-34) or PEG-PTH(1-34) was calculated from a calibration curve prepared using PTH(1-34) or PEG-PTH(1-34). The Winnonlin program Ver. 2.1 (Scientific Consulting Inc.) was used to analyze the time course of changes in the calculated plasma PTH(1-34) or PEG-PTH(1-34) levels (FIG. 3: by intravenous route; FIG. 4: by subcutaneous route) to calculate the following as pharmacokinetic parameters: time required to reach the maximum plasma level (Tmax); maximum plasma level (Cmax); area under the curve of plasma levels (AUC); plasma half-life (t1/2); total body clearance (Cltotal); mean residence time in the body (MRT); and bioavailability (BA). […]

[2] = Pharmacokinetics and bioavailability in rats by subcutaneous route; assay type: in vivo
Procedure: as §1, §2

[3] = clinical trial, cited from earlier work
human PTH1 receptors = molecular target: T1, human PTH1 receptors (Homo sapiens, UniProt Q03431); experiment: in vitro ability to produce cAMP, HKRK-B7 cells; assay type: cell-based; conditions: Table 2(1), n=2-3
T1 construct: expressed in transfected cells; host or cells: HKRK-B7 and HKRK-B64 cells (derived from pig kidney LLC-PK1 cells)
T1 sequence (Q03431 27-593): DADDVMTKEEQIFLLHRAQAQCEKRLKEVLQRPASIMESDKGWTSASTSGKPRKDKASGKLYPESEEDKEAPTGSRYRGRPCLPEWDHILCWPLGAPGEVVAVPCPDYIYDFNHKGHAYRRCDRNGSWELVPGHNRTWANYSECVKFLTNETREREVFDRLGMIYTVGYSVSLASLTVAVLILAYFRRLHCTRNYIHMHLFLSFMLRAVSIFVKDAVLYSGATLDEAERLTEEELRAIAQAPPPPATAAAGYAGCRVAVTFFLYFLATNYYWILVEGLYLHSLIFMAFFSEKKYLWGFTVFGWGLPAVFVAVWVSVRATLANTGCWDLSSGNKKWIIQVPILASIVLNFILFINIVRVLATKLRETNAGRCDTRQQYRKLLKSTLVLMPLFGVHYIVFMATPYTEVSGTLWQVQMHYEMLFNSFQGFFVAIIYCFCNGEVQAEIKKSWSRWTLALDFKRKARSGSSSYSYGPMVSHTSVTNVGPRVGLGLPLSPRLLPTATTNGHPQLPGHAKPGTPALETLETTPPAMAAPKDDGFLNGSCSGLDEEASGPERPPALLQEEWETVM
Procedure: Each PEG-PTH sample was assayed for its ability to produce cAMP (indicative of the increasing effect of PTH on bone mass) as follows. […] These cells were seeded in 96-well plates at 1×10^5 cells/well and incubated overnight. […] After removing the reaction solution, the plates were placed on powdered dry ice to freeze the cells and then removed from the dry ice. The cells were thawed with 50 μL of 50 mM HCl and frozen again on dry ice. The level of intracellular cAMP was determined with a commercially available EIA kit (Biotrak cAMP EIA system, Amersham).

Row | Compound | AUC ([1]; read-out: AUC) [ng·h/mL] | clearance ([1]; read-out: Cltotal (converted)) [mL/min/kg] | MRT ([1]; read-out: MRT) [min] | half-life ([1]; read-out: t½ (converted)) [min] | bioavailability ([2]; male, SD, rat, plasma, sc, 80 μg/kg, subcutaneous route, read-out: BA) [%] | Cmax ([2]; rat, in vivo, sc, subcutaneous, 80 μg/mL at 1 mL/kg) [ng/mL] | AUC ([2]; rat, in vivo, sc, subcutaneous, 80 μg/mL at 1 mL/kg, read-out: AUC) [ng·h/mL] | MRT ([2]; rat, in vivo, sc, subcutaneous, 80 μg/mL at 1 mL/kg, read-out: MRT) [min] | Tmax ([2]; rat, in vivo, sc, subcutaneous, 80 μg/mL at 1 mL/kg, read-out: Tmax) [min] | half-life ([2]; rat, in vivo, sc, subcutaneous, 80 μg/mL at 1 mL/kg, read-out: t ½ (converted)) [min] | BA ([2]; subcutaneous route) | nausea and headache as side effects (in words) ([3]; dose of 20 μg) | nausea and headache as side effects (in words) ([3]; dose of 40 μg) | Maximum cAMP response (human PTH1 receptors) [pmol/well] | EC50 (human PTH1 receptors; cAMP production) [pM]
1 | CC[C@H](C)[C@H](NC(=O)[C@H](CCC(=O)O)NC(=O)[C@H](CO)NC(=O)[C@@H](NC(=O)[C@@H](N)CO)C(C)C)C(=O)N[C@@H](CCC(N)=O)C(=O)N[C@@H](CC(C)C)C(=O)N[C@@H](CCSC)C(=O)N[C@@H](Cc1cnc[nH]1)C(=O)N[C@@H](CC(N)=O)C(=O)N[C@@H](CC(C)C)C(=O)NCC(=O)N[C@@H](CCCCN)C(=O)N[C@@H](Cc1cnc[nH]1)C(=O)N[C@@H](CC(C)C)C(=O)N[C@@H](CC(N)=O)C(=O)N[C@@H](CO)C(=O)N[C@@H](CCSC)C(=O)N[C@@H](CCC(=O)O)C(=O)N[C@@H](CCCN=C(N)N)C(=O)N[C@H](C(=O)N[C@@H](CCC(=O)O)C(=O)N[C@@H](Cc1c[nH]c2ccccc12)C(=O)N[C@@H](CC(C)C)C(=O)N[C@@H](CCCN=C(N)N)C(=O)N[C@@H](CCCCN)C(=O)N[C@@H](CCCCN)C(=O)N[C@@H](CC(C)C)C(=O)N[C@@H](CCC(N)=O)C(=O)N[C@@H](CC(=O)O)C(=O)N[C@H](C(=O)N[C@@H](Cc1cnc[nH]1)C(=O)N[C@@H](CC(N)=O)C(=O)N[C@@H](Cc1ccccc1)C(=O)O)C(C)C)C(C)C [hPTH(1-34), reference compound] | 21.7 | 61.7 | 12.7 | 13.9 | 13.6 | 5.55 | 2.94 | 32.8 | 11.6 | 20.9 | about 13.6% | same frequency as observed in the placebo group | caused nausea and headache as side effects at a statistically significant level |  | 
2 | 2 k PEG-[Cys^35]-hPTH(1-35): [Cys^35]-PTH(1-35) conjugated with mPEG 2 k-MAL (2 kDa methoxy-PEG-maleimide) at the C-terminal cysteine (SVSEIQLMHNLGKHLNSMERVEWLRKKLQDVHNFC; Parathyroid hormone 2 kDa mPEG-maleimide at Cys35; UniProt P01270 32-66, looked up, variant V35C) |  |  |  |  |  |  |  |  |  |  |  |  |  | 109.3 ± 10.1 | 500
